The target of experiment [1] is T1, Dipeptidyl peptidase 2 (Homo sapiens, UniProt Q9UHL4). Kind of experiment: Inhibitory activity against human DPP7 using Ala-Pro-AMC in fluorometric assay.
The target of experiment [2] is Dipeptidyl peptidase 4 (Homo sapiens, UniProt P27487). Kind of experiment: Inhibitory activity against human DPP4 using Gly-Pro-AMC in fluorometric assay.
In experiment [3] the target is Prolyl endopeptidase FAP (Homo sapiens) (UniProt Q12884). Kind of experiment: Inhibition of human FAP using Lys-Pro-AMC in fluorometric assay at 33 uM.
The target in experiment [4] is T2, Prolyl endopeptidase FAP (Homo sapiens, UniProt Q12884).
T2 sequence (Q12884 whole entry): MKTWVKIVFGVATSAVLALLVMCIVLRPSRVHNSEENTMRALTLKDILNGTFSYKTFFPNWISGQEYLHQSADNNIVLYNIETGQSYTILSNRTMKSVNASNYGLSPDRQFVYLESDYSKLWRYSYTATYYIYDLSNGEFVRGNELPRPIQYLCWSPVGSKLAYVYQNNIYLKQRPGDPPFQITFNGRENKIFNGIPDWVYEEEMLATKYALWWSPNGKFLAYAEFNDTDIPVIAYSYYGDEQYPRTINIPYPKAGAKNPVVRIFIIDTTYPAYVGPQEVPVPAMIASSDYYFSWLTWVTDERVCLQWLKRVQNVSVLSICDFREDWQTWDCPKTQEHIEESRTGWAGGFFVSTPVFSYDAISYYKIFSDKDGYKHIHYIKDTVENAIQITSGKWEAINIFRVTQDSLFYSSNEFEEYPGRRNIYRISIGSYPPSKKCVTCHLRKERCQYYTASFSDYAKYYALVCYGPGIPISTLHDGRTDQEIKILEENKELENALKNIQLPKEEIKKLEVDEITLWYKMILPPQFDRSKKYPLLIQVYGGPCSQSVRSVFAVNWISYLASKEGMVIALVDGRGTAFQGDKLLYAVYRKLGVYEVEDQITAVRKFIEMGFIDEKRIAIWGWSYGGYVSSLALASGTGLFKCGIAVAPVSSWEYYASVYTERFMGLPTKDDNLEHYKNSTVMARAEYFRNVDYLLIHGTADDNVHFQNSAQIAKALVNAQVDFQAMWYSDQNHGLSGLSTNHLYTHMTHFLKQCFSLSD
Put plainly: Inhibitory activity against human FAP using Lys-Pro-AMC in fluorimetric assay; No inhibition.

In experiment [5] the target is T1, Dipeptidyl peptidase 2. Put plainly: Inhibitory activity against human DPP7 using Ala-Pro-AMC in fluorometric assay; No inhibition.

Sequence of Dipeptidyl peptidase 4 (P27487 whole entry): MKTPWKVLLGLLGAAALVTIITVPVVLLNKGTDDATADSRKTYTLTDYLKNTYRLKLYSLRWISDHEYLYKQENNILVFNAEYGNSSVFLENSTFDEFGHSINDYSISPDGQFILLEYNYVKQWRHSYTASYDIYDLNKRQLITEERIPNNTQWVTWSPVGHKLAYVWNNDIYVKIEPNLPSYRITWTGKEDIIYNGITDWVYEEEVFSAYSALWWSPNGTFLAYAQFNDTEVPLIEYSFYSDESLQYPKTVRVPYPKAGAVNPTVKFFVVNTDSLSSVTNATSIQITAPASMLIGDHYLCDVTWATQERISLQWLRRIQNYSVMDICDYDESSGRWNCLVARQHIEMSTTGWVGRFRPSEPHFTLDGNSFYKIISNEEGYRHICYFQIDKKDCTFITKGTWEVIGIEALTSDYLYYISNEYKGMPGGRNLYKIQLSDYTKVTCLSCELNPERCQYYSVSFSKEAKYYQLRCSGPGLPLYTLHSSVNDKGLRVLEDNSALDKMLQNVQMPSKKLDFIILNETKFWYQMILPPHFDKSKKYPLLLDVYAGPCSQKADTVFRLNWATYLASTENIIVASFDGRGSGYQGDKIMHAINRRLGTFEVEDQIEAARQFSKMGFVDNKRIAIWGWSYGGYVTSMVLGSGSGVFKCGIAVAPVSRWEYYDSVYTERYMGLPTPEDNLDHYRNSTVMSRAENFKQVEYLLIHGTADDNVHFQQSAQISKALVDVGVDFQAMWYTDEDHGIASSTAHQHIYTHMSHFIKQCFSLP

As usually defined, the IC50 is the concentration that inhibits the measured activity by half. Low readings indicate greater potency, high ones weaker potency. Compound `C[C@@H](N)C(=O)N1CCC[C@H]1B(O)O` returned an IC50 in experiment [1] of 6.3 nM. This lies in the single-digit nanomolar range.

With `O=C(CNC1CC2CCCC1C2)N1CCC[C@H]1B(O)O` (stereo partly specified), the IC50 turned out to be 25 nM in experiment [2] and 8 nM in experiment [1].

With `O=C(CNC12CC3CC(CC(C3)C1)C2)N1CCC[C@@H]1B(O)O`, the IC50 in experiment [2] stood at 8 nM; in experiment [1], 420 nM.

Consider `O=C(CNC1CCC1)N1CCC[C@H]1B(O)O`, for which the values for the IC50 in experiment [2] and in experiment [1] were 75 nM and 140 nM, respectively.

As for `O=C(CNC1CCCCCC1)N1CCC[C@H]1B(O)O`, the results for the IC50 in experiment [2] and in experiment [1] were 7.8 nM and 1.8 nM, respectively.

In the case of `CCCCCC12CCC(NCC(=O)N3CCC[C@H]3B(O)O)(CC1)CC2`, the half-maximal inhibitory concentration (IC50) in experiment [2] stood at 61 nM; in experiment [1], 1 nM.

Consider `O=C(CNC1CCCCCCC1)N1CCC[C@H]1B(O)O`, for which the IC50 in experiment [2] was 27 nM; in experiment [1] it was 4 nM.

For `CN(CC(=O)N1CCC[C@@H]1B(O)O)C1C2CC3CC(C2)CC1C3` (stereo partly specified), the IC50 in experiment [2] turned out to be 1600 nM; in experiment [1] it was 4600 nM.

Take `CC12CC3(C)CC(C)(C1)CC(NCC(=O)N1CCC[C@@H]1B(O)O)(C2)C3`: the half-inhibitory concentration (IC50) in experiment [2] was 560 nM; in experiment [1], 35 nM.

Broadly, the inhibition is how much of the control response was suppressed. A higher inhibition goes with a strong effect. `O=C(CNC1CC1)N1CCC[C@H]1B(O)O` yielded an inhibition in experiment [3] of 30%. In addition, the IC50 stood at 130 nM in experiment [2] and 570 nM in experiment [1].

In the case of `O=C(CNC1CCCCC1)N1CCC[C@H]1B(O)O`, the concentration for half-maximal inhibition (IC50) turned out to be 27 nM in experiment [2] and 4.1 nM in experiment [1].

As for `O=C(CNC1C2CC3CC(C2)CC1C3)N1CCC[C@@H]1B(O)O` (stereo partly specified), the 50% inhibitory concentration (IC50) in experiment [2] was found to be 12 nM; in experiment [1] it was 120 nM.

Consider `CC(C)[C@@H](NC1CCCCC1)C(=O)N1CCC[C@H]1B(O)O`, for which the values for the half-maximal inhibitory concentration (IC50) in experiment [2], in experiment [4] and in experiment [5] were 16000 nM, “Not Active” and “Not Active”, respectively.

In the case of `O=C(CNC1CCCCCCCCC1)N1CCC[C@H]1B(O)O`, the IC50 in experiment [2] turned out to be 58 nM; in experiment [1], 2.2 nM.

Turning to `O=C(CNC1CCCC1)N1CCC[C@H]1B(O)O`, the values for the half-maximal inhibitory concentration (IC50) in experiment [2] and in experiment [1] were 25 nM and 15 nM, respectively.

The values above are taken from ChEMBL document CHEMBL1141049, “Synthesis and structure-activity relationship of N-alkyl Gly-boro-Pro inhibitors of DPP4, FAP, and DPP7” (Bioorg Med Chem Lett, 2005).
